Experimental findings from patent publication US20220105244A1, “METHODS AND COMPOSITIONS FOR PROTECTION OF BIOPROSTHETIC HEART VALVE TISSUE FROM GLYCATION AND ASSOCIATED PROTEIN INCORPORATION” (The Trustees of Columbia University in the City of New York, priority 2019, published 2022) are described below.

For assay [1], the system named is N-carboxymethyl lysine (CML). The assay is described as follows: Immunohistochemistry with anti-CML antibody after glyoxal glycation. Further details: species or system bovine. How it is done:
As a preliminary specific chemical analysis, immunohistochemistry was performed using a standard anti-CML (AbCAM #ab27684 @ 1:5000 dilution) antibody to probe for the best-studied glycation product, N-carboxymethyl lysine, after control or anti-glycated glutaraldehyde-fixed bovine pericardium tissue discs were glycated under aggressive conditions known to efficiently generate CML (one week incubation at 37° C. in 50 mM glyoxal). Brown staining indicates presence of CML.

In assay [2] the test system is glutaraldehyde-fixed bovine pericardium (Glut-BP). Nature of the assay: Uptake of 14C-radiolabeled glyoxal by glut-BP. The note with it: 6-week pre-incubation at 37° C., 1× (7.2 μmol/mg glut-BP); 24 hours at 37° C. in 50 mM 14C-glyoxal. As to the method:
FIG. 9. Bar graph of the quantitation of uptake by glutaraldehyde-fixed bovine pericardium (Glut-BP) of radioactively-labeled glycation precursor after 24 hours of incubation at 37° C. in 50 mM ^14C-radiolabeled glyoxal. Glut-BP was either kept in phosphate-buffered saline solution (PBS) in storage at 4° C. or placed in pre-incubation at 37° C. in PBS, PBS+1×1,5-dihydro-2H-pyrrol-2-one at 7.2 μmol/mg glut-BP, or PBS+1×4-(1-methyl-1H-imidazol-4-yl)butanal at 7.2 μmol/mg glut-BP.
The above interpretations are supported by quantitation of uptake of glycation precursor by glut-BP using carbon-14-radiolabeled glyoxal, which indicates approximately 15% decreases in overall glycation versus by an extreme concentration (50 mM) of glyoxal in glut-BP pre-treated by 6-week incubation at 37° C. in PBS alone or 1×1,5 or 1×4IB, shown in FIG. 9.

For assay [3], the system named is glutaraldehyde-fixed bovine pericardium. The assay is described as follows: Maillard browning of anti-glycation pre-treated tissue discs after in vitro glycation. To be noted: for tissue browning due to aggressive glycation: 6 weeks anti-glycation pretreatment at 37° C. (1,5 at pH 9.0), 1-week 50 mM glyoxal, methylglyoxal or glyoxal+5% human serum albumin. As to the method: A general method flow chart is described below. First, standard 0.6% glutaraldehyde fixation protocol (+/−any additional technology, e.g., anti-calcification). Second, wash protocol in phosphate-buffered saline to remove residual unreacted glutaraldehyde or other compounds. Third, incubation in subject compounds dissolved in, for example, phosphate-buffered saline at 37° C. for 6 weeks. Fourth, wash protocol in phosphate-buffered saline to remove residual unreacted anti-glycation precursor. Fifth, storage (usually in 0.2% glutaraldehyde.
(§1) Anti-glycation pretreatments have been performed for 1-, 2-, 4-, and 6-week-long durations for both 1,5-dihydro-2H-pyrrol-2-one as well as 4-(1-methyl-1H-imidazol-4-yl)butanal, and diversified 1-week glycation reactions have been applied to these samples. Namely, these conditions are 50 mM glyoxal, 50 mM methylglyoxal, and 50 mM glyoxal+5% human serum albumin. An antibody for N-carboxyethyl lysine, a major product of methylglyoxal glycation, was utilized for immunohistochemical staining.
“Maillard browning” is a classic and straightforward visual indicator of glycation. Formation of glycation products causes brown hues to develop in glycated tissues and proteinaceous materials. As a preliminary endpoint for initial anti-glycation efficacy studies, the inventors sought to evaluate prevention of browning due to glycation in glutaraldehyde-fixed bovine pericardium, the most common bioprosthetic heart valve biomaterial (and also widely used in other bioprosthetic implants), by pretreatment with the designed anti-glycation compounds. Short term (3-day) and long-term (6-week) protective incubation durations at physiological temperature (37° C.) were chosen as a starting point. Anti-glycation was followed by extensive washing of tissue in phosphate-buffered saline (PBS) to remove any unreacted anti-glycation precursor and extreme glycation conditions (1-week incubation in 50 mM doses of either methylglyoxal or glyoxal, two of the most reactive physiologically-relevant glycation precursors, or 50 mM glyoxal+5% human serum albumin, which exacerbates browning). Treatments and evaluation of browning have been performed with 1,5-dihydro-2H-pyrrol-2-one (“1,5,” compound 3) and 4-(1H-Imidazol-4-yl)butanal (“4IB”).

Assay [4] concerns N-carboxyethyl lysine (CEL). The assay is described as follows: Immunohistochemistry with antibody for N-carboxyethyl lysine after methylglyoxal glycation. On the set-up: species or system bovine. To be noted: anti-glycated vs untreated tissue. As to the method:
as §1

As to `O=C1C=CCN1` [Compound 3, 1,5-dihydro-2H-pyrrol-2-one], the “CML formation in response to glyoxal” value in assay [1] (anti-glycated vs untreated tissue) is on record as “still formed similarly as in untreated tissue”. For the same compound, in assay [1] (pretreatment for 6 weeks, one week incubation at 37° C. in 50 mM glyoxal), the CML formation entry is on record as “not mitigated”. For the same compound, in assay [2], the “decrease in overall glycation (uptake of 14C-glyoxal)” value was “approximately 15%”. For the same compound, the “protection against optical browning” value in assay [3] (50 mM glyoxal, 50 mM methylglyoxal, or 50 mM glyoxal+5% HSA for 7 days at 37° C.) was “dramatic protection”. In addition, the “tissue browning due to aggressive glycation” value in assay [3] is “dramatic diminishment of tissue browning”. In addition, the “incorporation of glycated (browned) albumin (tissue color, precursor alone vs precursor plus albumin)” value in assay [3] (6 weeks pretreatment, 50 mM glyoxal+5% human serum albumin) is “effectively blocks incorporation of glycated (browned) albumin”. Besides, the “CEL formation in response to methylglyoxal” value in assay [4] is “still formed similarly as in untreated tissue”.
On to `O=CCCCc1c[nH]cn1` [Compound 5, 4-(1H-Imidazol-4-yl)butanal], for which the “decrease in overall glycation (uptake of 14C-glyoxal)” value in assay [2] is on record as “approximately 15%”. Also, the “tissue browning due to aggressive glycation” value in assay [3] was “Protection from browning is less pronounced”.
